Results on 16 molecules are retold here after patent US7501397B2, “Helical peptidomimetics with enhanced activity” (The Brigham and Women's Hospital, Inc., priority 2004, dated 2009).

Like-named read-outs stand apart in the source and are kept apart here. Non-standard residues stand in square brackets, D forms with d. Residues, ends and D or L forms follow the SMILES beside them. *: point of attachment. Boc = CC(C)(C)OC(=O)*; Aib = CC(C)(N)C(=O)O; Bn = c1ccc(C*)cc1

Assay [1] has as its system Aβ production in Chinese hamster ovary (CHO) cells stably transfected with human APP. As to the kind of experiment: cell-based assay of total Aβ production in CHO cells stably transfected with human APP. An excerpt: Based on the helical model for the APP transmembrane domain, short peptides were designed to adopt a similar conformation that block γ-secretase activity. Judicious replacement of selected residues of short APP-derived peptides with 2-aminoisobutyric acid (Aib), a known helix-inducing amino acid (19, 20), provided peptides that, in principle, mimic the γ-secretase cleavage site on one face of the helix, with Aib residues on the other face. Aib-containing peptides were identified that inhibit Aβ production in APP-transfected cells with 50 percent inhibitory concentrations (IC50's) as low as 2 μM. […] The crystal structure of this compound has been determined, and the peptide is fully helical (19). In certain embodiments the compounds of the invention have structures that are based on the partial APP sequence Val-Gly-Gly-Val-Val-Ile-Ala-Thr-Val-Ile-Val-Ile (SEQ ID NO:12; see FIG. 1). Basing the structures of the compounds of the invention on the partial APP sequence could enhance in vivo specificity of the compounds.
The top set of peptidomimetics (SEQ ID NOs: 1-5) was designed considering the cleavage leading to Aβ42, and the bottom set (SEQ ID NOs: 6-10) was designed considering the cleavage site leading to Aβ40. IC50 is the concentration of compound that reduced production of total Aβ by 50% in a cell-based assay using Chinese hamster ovary (CHO) cells stably transfected with human APP.
Starting from the reference D-decapeptide having SEQ ID NO:10 (IC50=90 nM), the enantiomers of the helical peptide L-series were tested for inhibitory activity. […] This greater than 40-fold loss of activity compared to the cell-free assay may be due to the need to enter into and/or cross cell membranes or some susceptibility to metabolic degradation.

In assay [2] the target is T1, γ-secretase (Homo sapiens, UniProt P49768). As to the kind of experiment: cell-free γ-secretase assay using detergent-solubilized membranes from HeLa cells and a recombinant APP-based substrate. The class given is biochemical. Also noted: detergent-solubilized membranes from HeLa cells; endogenous in cells; host or cells: HeLa cells (detergent-solubilized membranes). On the procedure: Compounds were tested in a γ-secretase assay using detergent-solubilized membranes from HeLa cells and a recombinant APP-based substrate (Table 2, 18). […] Moreover, the γ-secretase inhibition appears to show dependence on length.

In assay [3] the target is T1, γ-secretase. The note with it: photoaffinity labeling; Kornilova et al. 2005; cited from earlier work.
Assay [4] addresses T1, γ-secretase. Set-up: detergent-solubilized membranes from HeLa cells; endogenous in cells; host or cells: HeLa cells (detergent-solubilized membranes). The note with it: value from Ref. 22, cited from earlier work.
Setting [5] is: APP-transfected CHO cells, read-out: IC50, cell-based assay.
The mark [6] stands for this setting: 50% inhibition of Aβ40 production, at least three independent experiments, read-out: Cell-free Assay IC50.
[7] abbreviates: CHO cells stably transfected with human APP, total Aβ, read-out: IC50 (concentration that reduced production of total Aβ by 50%).

Regarding `CC[C@@H](C)[C@@H](NC(=O)[C@H](NC(=O)[C@H](NC(=O)C(C)(C)NC(=O)CNC(=O)[C@H](NC(=O)OC(C)(C)C)C(C)C)C(C)C)C(C)C)C(=O)NC(C)(C)C(=O)N[C@@H](C(=O)N[C@@H](C(=O)NC(C)(C)C(=O)N[C@@H](C(=O)N[C@@H](C(=O)NC(C)(C)C(=O)OC)[C@H](C)CC)C(C)C)C(C)C)[C@H](C)OCc1ccccc1` [SEQ ID NO:18 D-peptide, Boc-Val-Gly-Aib-Val-Val-Ile-Aib-Thr(OBz)-Val-Aib-Val-Ile-Aib-OMe] (Boc-[dV]G[Aib][dV][dV][dI][Aib][dT](Bn)[dV][Aib][dV][dI][Aib]-OMe), the IC50 in assay [1] (setting [5]) was determined as 0.009 ± 0.001 µM; on γ-secretase [2] (read-out: IC50, cell-free γ-secretase assay) it was 0.00014 µM. The “loss of activity in cell-based assay compared to the cell-free assay” value in assay [1] (cell-based vs cell-free IC50) is “greater than 40 fold”. Besides, the “IC50, in words” value on γ-secretase [2] is on record as “subnanomolar”. Also, the “times more active than the other analogs of the D-series” value at γ-secretase [2] (D-series, cell-free assay) was found to be 100 times. As to `CC[C@@H](C)[C@@H](NC(=O)[C@H](NC(=O)[C@H](NC(=O)C(C)(C)NC(=O)CNC(=O)[C@H](NC(=O)C(C)(C)NC(=O)[C@@H](CC(C)C)NC(=O)CNC(=O)OC(C)(C)C)C(C)C)C(C)C)C(C)C)C(=O)NC(C)(C)C(=O)N[C@@H](C(=O)N[C@@H](C(=O)NC(C)(C)C(=O)N[C@@H](C(=O)N[C@@H](C(=O)NC(C)(C)C(=O)OC)[C@H](C)CC)C(C)C)C(C)C)[C@H](C)OCc1ccccc1` [SEQ ID NO:21 D-peptide, Boc-Gly-Leu-Aib-Val-Gly-Aib-Val-Val-Ile-Aib-Thr(OBz)-Val-Aib-Val-Ile-Aib-OMe] (Boc-G[dL][Aib][dV]G[Aib][dV][dV][dI][Aib][dT](Bn)[dV][Aib][dV][dI][Aib]-OMe), at γ-secretase [2] (setting [6]), the IC50 turned out to be 0.026 ± 0.021 µM. On the same count and under the same terms, the result for `CC[C@H](C)[C@H](NC(=O)[C@@H](NC(=O)[C@@H](NC(=O)C(C)(C)NC(=O)CNC(=O)[C@@H](NC(=O)C(C)(C)NC(=O)[C@H](CC(C)C)NC(=O)CNC(=O)OC(C)(C)C)C(C)C)C(C)C)C(C)C)C(=O)NC(C)(C)C(=O)N[C@H](C(=O)N[C@H](C(=O)NC(C)(C)C(=O)N[C@H](C(=O)N[C@H](C(=O)NC(C)(C)C(=O)OC)[C@@H](C)CC)C(C)C)C(C)C)[C@@H](C)OCc1ccccc1` [SEQ ID NO:21 L-peptide, Boc-Gly-Leu-Aib-Val-Gly-Aib-Val-Val-Ile-Aib-Thr(OBz)-Val-Aib-Val-Ile-Aib-OMe] (Boc-GL[Aib]VG[Aib]VVI[Aib]T(Bn)V[Aib]VI[Aib]-OMe) reads 11 µM. Take “Ac-Val-Gly-Aib-Val-Val-Ile-Aib-Thr(OBz)-Val-Aib-Val-Val-Aib-NH2 (Ac-VG[Aib]VVI[Aib]XV[Aib]VV[Aib]-NH2; not fully specified (some residues); printed as Ac-Val-Gly-Aib-Val-Val-Ile-Aib-Thr(OBz)-Val-Aib-Val-Val-Aib-NH2) [SEQ ID NO:23 D-peptide]”: in the assay with γ-secretase [3], the “site of interaction with γ-secretase” value is reported as “not only interact with the initial substrate-binding site but also extend into the active site”. As to “Boc-Aib-Ile-Ala-Thr(OBz)-Aib-Ile-Val-Aib-OMe [SEQ ID NO:3]”, in assay [1] (setting [7]), the IC50 was 10 µM. For the molecule “Boc-Aib-Val-Val-Ile-Aib-Thr(OBz)-Val-Aib-OMe [SEQ ID NO:8]”, the IC50 in assay [1] (setting [7]) is 6 µM. The same measure, in the same setting: for “Boc-Ala-Thr(OBz)-Aib-Ile-Val-Aib-OMe [SEQ ID NO:1]” the value was 25 µM.

“Boc-D-Val-Gly-Aib-D-Val-D-Val-D-BPA-Aib-D-Thr(OBz)-D-Val-Aib-OMe [SEQ ID NO:11]”: the IC50 in assay [1] (setting [5]) turned out to be 0.1 µM. Turning to “Boc-Gly-Aib-Val-Val-Ile-Aib-Thr(OBz)-Val-Aib-OMe [SEQ ID NO:9]”, the IC50 in assay [1] (setting [7]) was found to be 3 µM.

For the molecule “Boc-Gly-Val-Aib-Ile-Ala-Thr(OBz)-Aib-Ile-Val-Aib-OMe [SEQ ID NO:5]”, in assay [1] (setting [7]), the IC50 came out at 5 µM. Still for that read-out and setting: the result for “Boc-Ile-Ala-Thr(OBz)-Aib-Ile-Val-Aib-OMe [SEQ ID NO:2]” reads 15 µM; that for “Boc-Val-Aib-Ile-Ala-Thr(OBz)-Aib-Ile-Val-Aib-OMe [SEQ ID NO:4]”, 2 µM. Regarding “Boc-Val-Gly-Aib-Val-Val-Ile-Aib-Thr(OBz)-Val-Aib-OMe [SEQ ID NO:10 D-peptide]”, on γ-secretase [4] (50% inhibition of Aβ40 production, read-out: Cell-free Assay IC50), the IC50 is 0.09 µM. The “site of interaction with γ-secretase” value on γ-secretase [3] was “interacts with the initial substrate-binding site, but not the active site”. “Boc-Val-Gly-Aib-Val-Val-Ile-Aib-Thr(OBz)-Val-Aib-OMe [SEQ ID NO:10 L-peptide]”: the IC50 was 30 µM at γ-secretase [4] (reference decapeptide, read-out: IC50, cell-free γ-secretase assay) and 3 µM in assay [1] (setting [7]). As to “Boc-Val-Ile-Aib-Thr(OBz)-Val-Aib-OMe [SEQ ID NO:6]”, in assay [1] (setting [7]), the IC50 turned out to be 12 µM.

Regarding “Boc-Val-Val-Ile-Aib-Thr(OBz)-Val-Aib-OMe [SEQ ID NO:7]”, the IC50 in assay [1] (setting [7]) was 6 µM.
